Test results from patent US20240165089A1, “METHOD FOR TREATING MYOPIA WITH VINPOCETINE” (EYE HOSPITAL, WENZHOU MEDICAL UNIVERSITY, priority 2021, published 2024).
“And” between values parts separate entries of the source, which are not always exact repeats. Equal values may be shown once.

How the values were obtained:
[1] = tested on: choroid of LIM guinea pigs; test: choroidal thickness and blood flow by OCTA, LIM group; type: in vivo, guinea pig; conditions: 1 week, vs solvent injection group
Method: The choroidal blood flow parameters and choroidal thickness were measured for the animals in the above FDM group after 1 week of continuous administration and at the end of the 2 week-administration experiment and for the animals in the LIM group at the end of the 7 day-administration experiment. Choroidal blood flow parameters and thickness were measured using a modified commercial OCTA (Spectralis HRA+OCT, OCTA, Heidelberg, Germany) which is more suitable for animal eyeballs. Before the measurement, the guinea pigs were fully anesthetized (a mixture of ketamine hydrochloride 60 mg/kg and xylazine hydrochloride 9 mg/kg, intraperitoneally injected), and then the guinea pig OCTA images were obtained, and the measurement results were quantified through a self-written program (MatLab R2017a, MathWorks). Real-time quantitative detection of choroidal blood flow and thickness in guinea pigs was achieved (Sen Zhang, Invest Ophthalmol Vis Sci. 2019 Jul. 1; 60(8):3074-3083).
Vinpocetine is known to improve blood circulation. The inventors used the method of example 1 to detect changes of indicator signals of choroidal thickness ChT and choroidal blood flow ChBP of FDM (1 week and 2 weeks of administration) and LIM (1 week of administration) at different time points during the administration cycle.

[2] = tested on: form deprivation myopia model of guinea pigs; test: FDM guinea pig model, eye drops (non-invasive administration); type: in vivo; conditions: for refraction difference between the eyes: FDM
Method: The purpose of this experiment was to evaluate the effect of vinpocetine on myopia through non-invasive administration. All tested drugs were formulated into eye drops. […] No other active substances or excipients were added to the above eye drops.

[3] = tested on: form deprivation myopia model of guinea pigs; test: FDM guinea pig model, subconjunctival injection, salmeterol/tiotropium/vinpocetine; conditions: FDM, vinpocetine 1 μM alone, subconjunctival, 2 weeks
Source text: The form deprivation myopia model of guinea pigs described in the present invention was used to evaluate the efficacy. […] On the first day of the experiment, guinea pigs were subjected to form deprivation at 8 a.m. using a mask method, with the right eye covered (experimental eye) and the left eye uncovered (contralateral eye). Starting from the day of modeling, solvents or drugs for the corresponding groups were given to the experimental eyes at 9-10 a.m. every day by eyeball subconjunctival injection at an injection volume of 100 μL, once a day for 2 weeks. The refraction and axial parameters of the animals were detected before the start of the efficacy experiment and at the end of the experiment. All data collection and processing methods were the same as in other embodiments of the present invention. The statistical basis was the difference between the experimental eye and the contralateral eye of the same subject individual.

[4] = tested on: form deprivation myopia (FDM) guinea pig model; test: form deprivation myopia (FDM) guinea pig model, injection around the eyeball; type: in vivo
Source text: The form deprivation and lens-induced guinea pig myopia model is a classic and recognized myopia animal model in the field. The model can be used to evaluate the efficacy and safety of drugs for treating myopia. The construction method of the model is well known to those skilled in the art. The animal modeling and administration route in this application refer to the scientific literature previously published by this research group (Sen Zhang, Invest Ophthalmol Vis Sci. 2019 Jul. 1; 60(8):3074-3083.; Miaozhen Pan, Exp Eye Res. 2021 January; 202:108332.), specifically, this application uses the following exemplary construction method of the form deprivation and lens-induced guinea pig myopia model:
(§1) three-week-old tricolor guinea pigs (both male and female, simulating humans aged 3-26 years old) were used and raised in the experimental animal room of Wenzhou Medical University in a 12-hour light (400-500 lux)/12-hour dark environment with free access to water and food. The myopia model adopted monocular form deprivation (FD) and lens induction (LI) modeling methods. […] In the lens induction group, a −4D lens was fixed in front of the right eye of the animal, and the left eye obtained normal vision. For the above animals, the lenses were cleaned twice a day to prevent the lenses from blurring. The animals in the experimental group were administrated at 9:00-9:30 am every day. […] The administration process for each animal was controlled in about 10 seconds. Administration began on the day of modeling, and was continuous for 2 weeks for the form deprivation group and was continuous for 1 week for the lens induction group. This experiment has been reviewed by the Experimental Animal Ethics Committee of Wenzhou Medical University.
The inventors prepared a 5 μM (i.e., 1.75 μg/mL) vinpocetine stock solution and stored at −80° C. The solvent was physiological saline. Before administration experiment, the stock solution was diluted with physiological saline to 1 μM, 0.1 μM, and 0.01 μM, respectively. During the formulation process of vinpocetine eye drops, the solubility can be increased by using conventional physical methods such as heating and stirring, or acids can also be used to adjust the PH value to increase solubility, and finally, the PH value can be adjusted to 7.31.
2. Form deprivation plus drug injection group: • wearing an eye mask on one eye and injecting vinpocetine (0.01 μM: 0.1 mL/day) into the eye wearing the eye mask for 2 weeks, sample size=15; • wearing an eye mask on one eye and injecting vinpocetine (0.1 μM: 0.1 mL/day) into the eye wearing the eye mask for 2 weeks, sample size=20; • wearing an eye mask on one eye and injecting vinpocetine 1.00 μM: 0.1 mL/day) into the eye wearing the eye mask for 2 weeks, sample size=22; • 3.
All animals in the same model efficacy experiment were measured within the same time period, and the first measurement was at 3 weeks of age, that is, before drug administration. Refractions and eyeball parameters were measured for the animals in the above FDM group before the experiment, after 1 week of administration in the experiment and after 2 weeks of administration in the experiment and for the animals in the LIM group before the experiment, after 3 days of administration in the experiment and after 7 days of administration in the experiment, respectively. The refractions were measured using an eccentric infrared photoretinoscope (EIR) built in our laboratory. Each eye was measured three times and the average was taken as the final result. The axial parameters of the guinea pig's eyeballs were measured using the A-ultrasound probe in the CinescanA/B ultrasonic diagnostic instrument (QuantelMedical, Aviso, France). The ultrasonic frequency was 11 MHz. The ultrasonic propagation speeds of different refractive media of the eyeball were set as: 1557.5 m/s for the anterior chamber, 1723.3 m/s for the lens, and 1540 m/s for the vitreous body.

guinea pigs = test: safety observation during local administration to young guinea pigs; type: in vivo, guinea pig
Source text: as §1

[5] = vinpocetine 5 μM eye drops, 2 weeks
[6] = vinpocetine 5 μM eye drops, 2 weeks (rounded and actual value)
[7] = vinpocetine 1 μM, 1 week, vs vehicle

CCOC(=O)C1=C[C@]2(CC)CCCN3CCc4c(n1c1ccccc41)[C@@H]32 [vinpocetine]
choroidal thickness ChT ([1]; not statistically significant): only slightly increased | choroidal blood perfusion ChBP ([1]; p=0.766): only slightly increased | refraction difference between the eyes ([2]; vinpocetine 1 μM eye drops 25 μL twice a day, 2 weeks): −4.81±1.72 D | refraction difference between the eyes ([2]; vinpocetine 5 μM eye drops 25 μL twice a day, 2 weeks): −3.80±1.16 D | refraction inhibition rate ([2]; vinpocetine 1 μM eye drops, 2 weeks): 26.7% | inhibition rate for the axial length [2, 5]: 41.4% | inhibition rate for the vitreous chamber depth [2, 5]: 38.6% | refraction inhibition rate [2, 5]: 42.1% | axial length difference between the eyes [2, 6]: 0.09±0.04 mm and 0.0925±0.0406 mm | vitreous chamber depth difference between the eyes [2, 6]: 0.09±0.04 mm and 0.0869±0.0448 mm | refraction change towards negative, axial length elongation and vitreous chamber depth increase vs negative control [3]: significantly inhibited | refraction change towards negative and vitreous chamber depth elongation compared with the negative control group ([4]; low-concentration vinpocetine 0.01 μM, two time points, no statistical difference): showed an inhibitory trend | refraction difference between the experimental eye and the contralateral eye ([4]; vinpocetine 1 μM 0.1 mL/day peribulbar injection, 1 week): −2.44±1.88 D | axial length difference between the experimental eye and the contralateral eye ([4]; vinpocetine 1 μM, 1 week): 0.07±0.05 mm | vitreous chamber depth difference between the experimental eye and the contralateral eye ([4]; vinpocetine 1 μM, 1 week): 0.06±0.05 mm | inhibition rate for the axial length [4, 7]: 39.8% | inhibition rate for the vitreous chamber depth [4, 7]: 45.0% | refraction inhibition rate [4, 7]: 50.5% | axial length difference between the experimental eye and the contralateral eye ([4]; vinpocetine 1 μM, 2 weeks): 0.08±0.05 mm | inhibition rate for the axial length ([4]; vinpocetine 1 μM, 2 weeks): 48.2% | inhibition rate for the vitreous chamber depth ([4]; vinpocetine 1 μM, 2 weeks): 43.4% | refraction difference between the experimental eye and the contralateral eye ([4]; vinpocetine 1 μM, 2 weeks): −3.36±2.21 D | refraction inhibition rate ([4]; vinpocetine 1 μM, 2 weeks): 50.1% | vitreous chamber depth difference between the experimental eye and the contralateral eye ([4]; vinpocetine 1 μM, 2 weeks): 0.09±0.05 mm | common clinical adverse reactions or toxic manifestations such as weight loss (guinea pigs; guinea pig, in vivo): no individual was observed to have common clinical adverse reactions or toxic manifestations | allergic phenomenon (guinea pigs; local administration of vinpocetine): no allergic phenomenon | changes in the pupil size of the test eyes (guinea pigs; local administration of vinpocetine to young guinea pigs): No significant changes | ocular abnormalities (guinea pigs; vinpocetine group, local administration): No ocular abnormalities
